This assay deals with T1, human PPARα (Homo sapiens, UniProt Q07869).
T1 construct: The coding region of a human PPARα cDNA was inserted downstream of the CMV promoter; expressed in transfected cells; host or cells: Cos-7 cells, transient transfection (pcDNA3.1(−)-PPARα, pRSV-RXRα, 3xPPRE-TK-luc reporter, pRL-TK)
T1 sequence (Q07869 1-468): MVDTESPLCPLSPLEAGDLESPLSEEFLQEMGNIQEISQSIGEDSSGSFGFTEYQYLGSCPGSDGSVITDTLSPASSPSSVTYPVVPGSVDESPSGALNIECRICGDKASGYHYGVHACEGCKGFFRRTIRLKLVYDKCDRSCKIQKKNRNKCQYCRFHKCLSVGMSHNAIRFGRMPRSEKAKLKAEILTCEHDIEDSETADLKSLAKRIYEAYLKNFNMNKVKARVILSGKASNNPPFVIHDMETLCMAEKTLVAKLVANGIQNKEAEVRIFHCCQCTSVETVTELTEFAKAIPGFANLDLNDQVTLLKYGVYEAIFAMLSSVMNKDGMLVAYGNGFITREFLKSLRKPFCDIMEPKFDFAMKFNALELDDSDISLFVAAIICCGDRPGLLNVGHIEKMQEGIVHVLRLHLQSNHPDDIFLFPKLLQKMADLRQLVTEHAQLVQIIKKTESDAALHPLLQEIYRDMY
T1 sequence (P19793 1-462 partner): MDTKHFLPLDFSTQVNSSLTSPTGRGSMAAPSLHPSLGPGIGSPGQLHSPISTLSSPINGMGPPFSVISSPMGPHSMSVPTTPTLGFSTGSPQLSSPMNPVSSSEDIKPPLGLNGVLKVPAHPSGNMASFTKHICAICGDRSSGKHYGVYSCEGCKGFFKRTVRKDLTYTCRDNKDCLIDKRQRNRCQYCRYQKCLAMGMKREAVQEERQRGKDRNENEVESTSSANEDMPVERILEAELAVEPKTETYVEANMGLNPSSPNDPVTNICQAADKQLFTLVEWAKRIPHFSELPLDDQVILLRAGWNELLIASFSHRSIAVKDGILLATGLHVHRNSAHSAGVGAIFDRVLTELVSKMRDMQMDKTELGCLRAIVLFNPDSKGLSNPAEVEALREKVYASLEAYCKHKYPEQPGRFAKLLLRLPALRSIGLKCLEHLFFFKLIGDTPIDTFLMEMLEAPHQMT
The assay can be described thus: PPARα reporter gene assay (firefly luciferase, transiently transfected Cos-7 cells). It counts as cell-based. To be noted: for Result (superior activity class achieved): class reached; for Pass at (lowest tested administration level at which the test material passed): pass = activation greater than oleic acid at 100 μM, commonly >1.57 times vehicle control, 24 h treatment. An excerpt: One convenient reporter assay for determining whether a fatty acid material is PPARα activating is based upon the firefly luciferase gene.
Fatty acids were screened to identify PPAR activating fatty acids using a reporter assay.
This assay relied on ligands binding to and activating the PPARα protein, which, in turn, activated genes under the control of PPAR response elements (PPRE). In the assay, the firefly luciferase gene was cloned behind a promoter containing 3 copies of the fatty acid binding protein PPRE.
The assay was performed by transient transfection of Cos-7 cells with a mixture of four DNA plasmids. These were:
1) PPAR reporter gene construct (Modified pNF-KB-luc reporter vector (Firefly luciferase reporter vector commercially available form Clontech (NF-kB response element, TK minimal promoter, luc^+, f1 origin, pUC origin, amp^r)). A tandem repeat of 3 PPAR response elements (PPREs) corresponding to the PPRE found in the fatty acid binding protein promoter was inserted upstream of the minimal TK promoter to replace the NF-κB response element);
2) 2) Over-expressing PPARα construct (Modified pcDNA3.1(−) vector (A mammalian expression vector commercially available from Invitrogen (CMV promoter, f1 origin, SV40 origin, ColE1 origin, neo^r, amp^r)). The coding region of a human PPARα cDNA was inserted downstream of the CMV promoter of pcDNA3.1 (−)). […] The coding region of a human RXRα cDNA has been inserted downstream of the RSV promoter. (Gift of V. K. K. Chatterjee, Addenbrooke's Hospital, Cambridge)) 4) Control luciferase construct (pRL-TK Renilla luciferase reporter vector commercially available from Promega (HSV-TK promoter, T7 promoter, Rluc^+, ori, amp^r)). For the transfection, DNA was made up as a mix of PPAR reporter gene: PPARα: RXRα: control in the ratio 40:4:3:3.
Cos-7 cells were grown in Dulbecco's modified Eagle's Medium, also herein referred to as DMEM with 10% foetal calf serum, herein also referred to as FCS at 37° C., 5% CO2 to 80% confluency. Cells were then plated out in 24 well plates at 50,000 cells per well and incubated overnight in DMEM with 10% FCS at 37° C., 5% CO2. Cells were then transfected using the LipofectAMINE reagent (GibcoBRL). For each well 0.4 μg of DNA mix (in 25 μl of DMEM) was incubated with 1 μl LipofectAMINE (in 25 μl of DMEM) for 45 minutes. The mixture was then made up to 250 μl per well and added to the cells, which had been washed with 1 ml of DMEM. Cells were then incubated for 5 hours at 37° C., 5% CO2 and 250 μl DMEM with 10% SBCS (charcoal stripped bovine calf serum) added. Cells were incubated for 18 hours at 37° C., 5% CO2 before being treated with the appropriate compound/extract. Test compounds were made up as 1000× stocks (in DMSO or ethanol as appropriate) and diluted into DMEM with 10% SBCS (500 μl per well) immediately before being added to cells. Each treatment was performed in triplicate. The transfection mix was removed from the cells and replaced with the treatment mix, and incubated for 24 hours at 37° C., 5% CO2. Cells were washed with 1 ml of PBS (without calcium or magnesium) and then lysed with 100 μl per well of 1× Passive Lysis Buffer (as supplied with Promega Dual Luciferase assay kit). Lysis was allowed to continue for 15 minutes and then the lysate was assayed for Firefly and Renilla luciferase activity using the Promega Dual Luciferase assay kit. For the assay, 20 μl of lysate was taken and assayed as described in the kit instructions using a MLX microtiter™ plate luminometer (Dynex).
Firefly luciferase activity (PPAR driven) was normalised against the Renilla luciferase value for that well and the mean calculated for the three wells treated with the same agent. Activity was then expressed as fold activation over the vehicle (DMSO or ethanol) control values for that particular plate.
In general terms: A reporter such as luciferase makes a cellular process visible.

Each structure is given as a SMILES string.

Consider `CCCCCCC(O)CCCCCCCCCCC(=O)O` (centres unmarked) [12-hydroxystearic acid], for which the “Result at (lowest administration level at which super or MS activity was achieved)” value amounted to 25 μm, the “Result (superior activity class achieved)” value was “MS (more superior activity [MS] (100% higher—at least 3 times PPARα activation))” and the “Pass at (lowest tested administration level at which the test material passed)” value (“Pass” below) is reported as 10 μm.
Take `CCCCC/C=C\C/C=C\C/C=C\C/C=C\CCCC(=O)O` [Arachidonic acid]: the “Pass” value was 25 μm.
With `CCCCCC/C=C/C=C/CCCCCCCC(=O)O` [CLA (t9, t11)], the “Result at (lowest administration level at which super or MS activity was achieved)” value came to 100 μm, the “Result (superior activity class achieved)” value is “MS (more superior activity [MS] (100% higher—at least 3 times PPARα activation))” and the “Pass” value was 50 μm.
In the same order, the values of `CCCCC/C=C\C/C=C\CC/C=C/CCCC(=O)O` [Columbinic acid, columbinic acid] are 25 μm, “super (superior activity [super] (50% higher—at least 2.25 times PPARα activation))” and 10 μm.
`CCCCCCCC/C=C/CCCCCCCC(=O)O` [Elaidic acid]: the “Pass” value is recorded as 100 μm.
With `CCCCC/C=C\C/C=C\CCCCCCCC(=O)O` [Linoleic acid], the “Result at (lowest administration level at which super or MS activity was achieved)” value is 100 μm, the “Result (superior activity class achieved)” value was “super (superior activity [super] (50% higher—at least 2.25 times PPARα activation))” and the “Pass” value was determined as 10 μm.
On to `CCCCC/C=C/C/C=C/CCCCCCCC(=O)O` [Linolelaidic acid], for which the “Pass” value is 25 μm.
Turning to `CC/C=C/C/C=C/C/C=C/CCCCCCCC(=O)O` [Linolenelaidic acid, linolenelaidic acid], the “Result at (lowest administration level at which super or MS activity was achieved)” value came to 25 μm, the “Result (superior activity class achieved)” value is “super (superior activity [super] (50% higher—at least 2.25 times PPARα activation))” and the “Pass” value is on record as 25 μm.
On to `CCCCCCCC/C=C\CCCCCCCC(=O)O` [Oleic acid, reference compound], for which the “PPARα activation compared with the vehicle control” value (100 μM, base-line) is given as “Base-line Oleic acid (1.57 at 100 μM) times”.
As for `CCCCCC/C=C\CCCCCCCC(=O)O` [Palmitoleic acid], the “Pass” value was 50 μm.
As for `CCCCCCCCCCC/C=C/CCCCC(=O)O` [Petroselaidic acid], the “Result at (lowest administration level at which super or MS activity was achieved)” value was determined as 100 μm, the “Result (superior activity class achieved)” value was “super (superior activity [super] (50% higher—at least 2.25 times PPARα activation))” and the “Pass” value came to 50 μm.
Take `CCCC\C=C/C=C/C=C\CCCCCCCC(=O)O` [Punicic acid, punicic acid]: the “Pass” value came out at 25 μm.
As for `CCCCCC[C@@H](O)C/C=C/CCCCCCCC(=O)O` [Ricinolaidic acid, ricinolaidic acid], the “Result at (lowest administration level at which super or MS activity was achieved)” value is given as 25 μm, the “Result (superior activity class achieved)” value is “MS (more superior activity [MS] (100% higher—at least 3 times PPARα activation))” and the “Pass” value is listed as 10 μm.
On to `CCCCCC[C@@H](O)C/C=C\CCCCCCCC(=O)O` [Ricinoleic acid, ricinoleic acid], for which the “Pass” value turned out to be 10 μm.
On to `CC/C=C\C/C=C\C/C=C\C/C=C\CCCCC(=O)O` [Stearidonic/octadecatetraenoic acid, stearidonic acid], for which the “Result at (lowest administration level at which super or MS activity was achieved)” value came out at 25 μm, the “Result (superior activity class achieved)” value is “super (superior activity [super] (50% higher—at least 2.25 times PPARα activation))” and the “Pass” value turned out to be 25 μm.
Turning to `CCCCCCCCC#CCCCCCCCC(=O)O` [Stearolic acid], the “Pass” value was 10 μm.
On to `CCCCCCCCCC/C=C/CCCCCC(=O)O` [Trans-7-octadecenoic acid], for which the “Result at (lowest administration level at which super or MS activity was achieved)” value was 10 μm, the “Result (superior activity class achieved)” value was “MS (more superior activity [MS] (100% higher—at least 3 times PPARα activation))” and the “Pass” value was determined as 10 μm.
As for `CCCC/C=C/CCCCCCCCCCCC(=O)O` [Trans-13-octadecenoic acid], the “Pass” value is on record as 10 μm.
`Cc1cccc(Nc2cc(Cl)nc(SCC(=O)O)n2)c1C` [WY14,643, reference compound]: the “Result at (lowest administration level at which super or MS activity was achieved)” value worked out at 100 μm, the “Result (superior activity class achieved)” value is “super (superior activity [super] (50% higher—at least 2.25 times PPARα activation))” and the “Pass” value is 10 μm.
As for `CCCCCC=CC/C=C\CCCCCCCCCCCC(=O)O` [cis 13,16 docosadienoic acid], the “Pass” value is listed as 10 μm.
The same measure, in the same setting: in the case of `CCC=CCC=CCC=CCC=CCC=CC/C=C\CCC(=O)O` [cis-4,7,10,13,16,19 docosahexenoic acid] it was 10 μm.
With `CCCCCCCCCCCCCC/C=C\CCCC(=O)O` [cis-5 eicosenoic acid], the “Result at (lowest administration level at which super or MS activity was achieved)” value amounted to 100 μm, the “Result (superior activity class achieved)” value was “MS (more superior activity [MS] (100% higher—at least 3 times PPARα activation))” and the “Pass” value is recorded as 10 μm.
In the same order, the values of `CCCCCC=CCC=CCC=CC/C=C\CCCCCC(=O)O` [cis-7,10,13,16 docosatetraenoic acid] are 100 μm, “super (superior activity [super] (50% higher—at least 2.25 times PPARα activation))” and 100 μm.

Values taken from patent US6713051B2, “Antiperspirant or deodorant compositions” (Unilever Home & Personal Care USA division of Conopco, Inc., priority 2001, dated 2004).
